Molecular target: T1, binding between ALS-related mutant SOD1 (Flag-SOD1 G93A) and Derlin-1 (Derlin-1-HA) (Homo sapiens, UniProt P00441+Q9BUN8, G94A)
T1 construct: expressed in transfected cells; host or cells: HEK293A
Assay: Cell-based co-immunoprecipitation assay of mutant SOD1 (G93A)-Derlin-1 binding
Set-up: key to Activity value (score): a compound exhibiting no inhibitory activity is set at 0; a compound exhibiting inhibitory activity is set at 1; a compound exhibiting significant inhibitory activity is set at 2; a compound having higher inhibitory activity than the compound of Example 1 is set at 3
Settings: assay concentration 5 μM; HEK293A cells overexpressing Flag-SOD1 G93A and Derlin-1-HA
Experimental: As cells, human embryonic kidney-derived, Human Embryonic Kidney 293A (HEK293A) cells were used. The cells were cultured in High Glucose Dulbecco's modified Eagle's medium (DMEM: 4.5 mg/ml glucose, Sigma) supplemented with complement-inactivated 10% fetal bovine serum (FBS, Vitromex) and 100 units/mL Penicillin G (Meiji), which was placed in an incubator set at conditions of 37° C. and 5% CO2.
Transfection into the HEK293A cells was carried out using PEI-Max (Polyscience) at a ratio of 3 μL of PEI-Max to 1 μg of plasmid. DMEM was mixed with PEI-Max, and the mixture was then left at rest for 5 minutes. Thereafter, the reaction mixture was added to the plasmid DNA dissolved in DMEM, and the thus obtained mixture was further left at rest for 15 minutes. After seeding, the culture was carried out for 12 to 24 hours, and the resultant was then added to a culture medium of cells, in which the medium had been exchanged with DMEM supplemented only with 10% FBS.
pcDNA3.0-Derlin-1-HA, pcDNA3.0-Flag-SOD1 G93A, and 123 types of other mutants.
In the lysis of HEK293A cells for use in a co-immunoprecipitation experiment, an IP lysis buffer (20 mM Tris-HCl (pH 7.5), 150 mM NaCl, 10 mM EDTA (pH 8.0), 1% Triton-X 100, 5 μg/mL leupeptin, and 1 mM phenylmethylsulfonyl fluoride) was used.
After the transfection on a 24-well plate, the cells were cultured for 12 hours or 24 hours, and the obtained cell culture was exchanged with 200 μL of medium. Thereafter, 1% DMSO or various types of compounds having each different concentration were added into the culture. Thirty-six hours or twenty-four hours later, the cells were incubated in the IP lysis buffer (300 μL/well) at 4° C. for 25 minutes, so that the cells were lysed. The cell lysate was centrifuged at 4° C. at 15000 rpm for 10 minutes, and a supernatant was then recovered. To this supernatant, Anti-Flag M2 affinity gel was added in a liquid amount of 20 μL, and they were allowed to react with each other by subjecting the obtained mixture to inversion mixing at 4° C. for 25 minutes. After completion of the reaction, a supernatant was removed, and the residue was washed twice with High salt wash buffer (1% Triton X 100, 500 mM NaCl, 20 mM Tris-HCl (pH 7.5), and 5 mM EGTA), and was then washed once with Low salt wash buffer (150 mM NaCl, 20 mM Tris-HCl (pH 7.5), and 5 mM EGTA). Finally, 50 μL of a 2×SDS sample buffer was added to the resultant, and the obtained mixture was then boiled at 98° C. for 3 minutes to obtain an SDS-PAGE sample. Regarding the lysate, a 2×SDS sample buffer was added in an amount equal to the supernatant, and the obtained mixture was then boiled at 98° C. for 3 minutes to obtain an SDS-PAGE sample.
After completion of SDS-PAGE, a protein was transferred from the gel into a polyvinylidene difluoride membrane (PVDF) ([…], Pall), and was then blocked with TBS-T (150 mM NaCl, 50 mM Tris-HCl (pH 8.0), and 0.05% Tween 20) supplemented with 5% skimmed milk at room temperature for 2 hours or more. Thereafter, a primary antibody diluted with TBS-T supplemented with 5% bovine serum albumin and 0.1% NaN3 was allowed to bind to each molecule on the PVDF membrane at 4° C. for 12 hours or more. After completion of the reaction, a secondary antibody (HRP-linked 2nd antibody) diluted with TBS-T supplemented with 5% skimmed milk was allowed to bind to the primary antibody at room temperature for 1 hour. Thereafter, the resultant was washed with TBS-T for 15 minutes, 3 or more times, and detection was then carried out using an enhanced chemiluminescence (ECL) system.
With regard to the compounds of the present invention (Example Compound 1 to Example Compound 47), whether or not the present compound can inhibit the binding between ALS-related mutant SOD1 and Derlin-1 in a cell by being added into a cell culture solution was examined according to a co-immunoprecipitation experiment. […]

T1 sequence (P00441 whole entry G94A, species assumed): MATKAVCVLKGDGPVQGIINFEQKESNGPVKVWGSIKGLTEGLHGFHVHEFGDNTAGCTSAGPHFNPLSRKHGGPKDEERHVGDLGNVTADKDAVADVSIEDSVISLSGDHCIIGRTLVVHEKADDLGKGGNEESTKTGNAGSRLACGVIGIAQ
T1 sequence (Q9BUN8 whole entry, species assumed, stated change not applied): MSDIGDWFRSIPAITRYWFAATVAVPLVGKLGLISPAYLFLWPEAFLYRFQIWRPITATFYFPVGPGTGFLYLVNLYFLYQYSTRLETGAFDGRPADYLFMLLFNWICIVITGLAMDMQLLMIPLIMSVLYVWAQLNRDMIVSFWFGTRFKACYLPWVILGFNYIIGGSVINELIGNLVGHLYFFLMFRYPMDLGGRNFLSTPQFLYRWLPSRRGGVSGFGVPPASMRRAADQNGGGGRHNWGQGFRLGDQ

Row | Activity value (score) | Structure (SMILES)
1 | 1 | CC#CCN(C(=O)c1sc2nc(-c3cccnc3)ccc2c1N)c1ccccc1 [Example 9, 3-amino-N-(2-butynyl)-N-phenyl-6-(3-pyridinyl)thieno[2,3-b]pyridine-2-carboxamide]

Same assay, conditions: assay concentration 10 μM; HEK293A cells overexpressing Flag-SOD1 G93A and Derlin-1-HA

Row | Activity value (score) | Structure (SMILES)
2 | 2 | C/C=C/CN(C(=O)c1sc2nc(-c3cccnc3)ccc2c1N)c1ccccc1 [Example 5, 3-amino-N-(trans-2-butenyl)-N-phenyl-6-(3-pyridinyl)thieno[2,3-b]pyridine-2-carboxamide]

Same assay, conditions: assay concentration 20 μM; HEK293A cells overexpressing Flag-SOD1 G93A and Derlin-1-HA

Row | Activity value (score) | Structure (SMILES)
3 | 1 | CC(C)=CCN(C(=O)c1sc2nc(-c3cccnc3)ccc2c1N)c1ccncc1 [Example 39, 3-amino-N-prenyl-N-(4-pyridinyl)-6-(3-pyridinyl)thieno[2,3-b]pyridine-2-carboxamide]
4 | 2 | C=CCN(C(=O)c1sc2nc(-c3cccnc3)ccc2c1N)c1ccc(I)cc1 [Example 12, N-allyl-3-amino-N-(4-iodophenyl)-6-(3-pyridinyl)thieno[2,3-b]pyridine-2-carboxamide]
5 | 2 | C=C(C)CN(C(=O)c1sc2nc(-c3ccncc3)ccc2c1N)c1ccccc1 [Example 47, 3-amino-N-metallyl-N-phenyl-6-(4-pyridinyl)thieno[2,3-b]pyridine-2-carboxamide]
6 | 2 | Nc1c(C(=O)N(Cc2ccccc2)c2ccccc2)sc2nc(-c3cccnc3)ccc12 [Example 37, 3-amino-N-benzyl-N-phenyl-6-(3-pyridinyl)thieno[2,3-b]pyridine-2-carboxamide]

The next lines start with the compound.

Row | Structure (SMILES) | Activity value (score)
7 | CC1(C)CCN(C(=O)c2sc3nc(-c4ccncc4)ccc3c2N)c2ccccc21 [Example 44] | 1
8 | C=CCN(C(=O)c1sc2nc(-c3ccncc3)ccc2c1N)c1ccc(F)c(F)c1 [Example 19, N-allyl-3-amino-N-(3,4-difluorophenyl)-6-(4-pyridinyl)thieno[2,3-b]pyridine-2-carboxamide] | 2
9 | C=CCN(C(=O)c1sc2nc(-c3cccnc3)ccc2c1N)c1cc(F)ccc1F [Example 17, N-allyl-3-amino-N-(2,5-difluorophenyl)-6-(3-pyridinyl)thieno[2,3-b]pyridine-2-carboxamide] | 2
10 | Nc1c(C(=O)N2CCCCc3ccccc32)sc2nc(-c3cccnc3)ccc12 [Example 14, [3-amino-6-(3-pyridinyl)thieno[2,3-b]2-pyridinyl](2,3,4,5-tetrahydro-1H-benzo[b]azepin-1-yl)methanone] | 2
11 | C=CCN(C(=O)c1sc2nc(-c3cccnc3)ccc2c1N)c1cc(F)cc(F)c1 [Example 20, N-allyl-3-amino-N-(3,5-difluorophenyl)-6-(3-pyridinyl)thieno[2,3-b]pyridine-2-carboxamide] | 2
12 | C=CCN(C(=O)c1sc2nc(-c3cccnc3)ccc2c1N)c1cccc(S(F)(F)(F)(F)F)c1 [Example 21, N-allyl-3-amino-N-(3-(pentafluoro-λ^6-sulfanyl)phenyl)-6-(3-pyridinyl)thieno[2,3-b]pyridine-2-carboxamide] | 2
13 | COc1cccc(N(CC=C(C)C)C(=O)c2sc3nc(-c4ccncc4)ccc3c2N)c1 [Example 45, 3-amino-N-(3-methoxyphenyl)-N-prenyl-6-(4-pyridinyl)thieno[2,3-b]pyridine-2-carboxamide] | 1
14 | CCCN(C(=O)c1sc2nc(-c3cccnc3)ccc2c1N)c1ccc(F)c(F)c1F [Example 11, N-n-propyl-3-amino-N-(2,3,4-trifluorophenyl)-6-(3-pyridinyl)thieno[2,3-b]pyridine-2-carboxamide] | 2
15 | C=CCN(C(=O)c1sc2nc(-c3ccncc3)ccc2c1N)c1cc(F)cc(F)c1 [Example 22, N-allyl-3-amino-N-(3,5-difluorophenyl)-6-(4-pyridinyl)thieno[2,3-b]pyridine-2-carboxamide] | 2
16 | C=CCN(C(=O)c1sc2nc(-c3cccnc3)ccc2c1N)c1cccc(F)c1F [Example 16, N-allyl-3-amino-N-(2,3-difluorophenyl)-6-(3-pyridinyl)thieno[2,3-b]pyridine-2-carboxamide] | 2

Reference: patent publication US10689394B2, “Thieno[2,3-b]pyridine derivative, quinoline derivative, and use thereof” (The University of Tokyo, priority 2016, dated 2020)
